Assay results: patent US9713618B2, “Method for modifying food intake and regulating food preference with a DPP-4 inhibitor” (Boehringer Ingelheim International GmbH, priority 2012, dated 2017)
Where no end group is shown, it is not given here.

Tests used:
[1] = Acute nocturnal food intake in normal-weight rats; format: in vivo, rat; conditions: linagliptin 0.5 mg/kg sc BID, GLP-1 0.4 mg/kg sc BID
Text: (§1) This anti-obesity effect is caused by appetite suppression and change in diet preference, presumably associated with increased dynorphin activity in dopaminergic forebrain regions involved in reward anticipation and habit learning.

[2] = Diet-induced obese (DIO) rats: body weight, food intake, diet preference; format: in vivo, rat; conditions: 14 days of monotherapy
Text: as §1

active GLP-1 = assay: Plasma active GLP-1 5 min after sucrose load in diabetic ZDF rats; format: in vivo, Male ZDF-Leprfa/Crl (diabetic fa/fa) rats; conditions: 5 min after the sucrose load
Procedure: (§2) Male ZDF-Leprfa/Crl (diabetic fa/fa) rats fed standard chow are allocated (n=10/group) based on body weight and fasting plasma glucose (FPG). […] An oral sucrose tolerance test (4 g/kg po) is performed on Day 4 and body weight is recorded daily.

[3] = Safety and tolerability in people with type 2 diabetes
[4] = Oral sucrose tolerance test (glucose control) on Day 4 in diabetic ZDF rats; format: in vivo, Male ZDF-Leprfa/Crl (diabetic fa/fa) rats; conditions: po daily 4 days, oral sucrose tolerance test Day 4
Procedure: as §2

[5] = Pharmacokinetics of BI 1356 after multiple oral doses once daily for 12 days in patients with type 2 diabetes; conditions: for fe0-24 / feτ, ss: gMean; for feτ, ss: steady state (Day 12)
[6] = Overall body weight in diabetic ZDF rats dosed daily for 4 days; format: in vivo, Male ZDF-Leprfa/Crl (diabetic fa/fa) rats; conditions: po daily 4 days
Procedure: as §2

[7] = S1: linagliptin 1 mg/kg, high-dose voglibose 10 mg/kg
[8] = S2: linagliptin 1 mg/kg, low-dose voglibose 1 mg/kg
[9] = S1: linagliptin 1 mg/kg, voglibose 10 mg/kg
[10] = S2: linagliptin 1 mg/kg, voglibose 1 mg/kg

Compound	nocturnal food intake [1]	body weight [2]	plasma active GLP-1 increase compared with vehicle (active GLP-1; S1 (voglibose 10 mg/kg)) [%]	plasma active GLP-1 increase compared with vehicle (active GLP-1; S2 (voglibose 1 mg/kg)) [%]	safety and tolerability [3]	glucose control compared with vehicle [4, 7] [%]	glucose control compared with vehicle [4, 8] [%]	mean accumulation ratio RA,AUC ([5]; doses above 1 mg)	fe0-24 ([5]; 2.5 mg oral once daily) [%]	fe0-24 ([5]; 5 mg oral once daily) [%]	fe0-24 ([5]; 10 mg oral once daily) [%]	feτ, ss ([5]; 1 mg oral once daily) [%]	feτ, ss ([5]; 2.5 mg oral once daily) [%]	feτ, ss ([5]; 5 mg oral once daily) [%]	feτ, ss ([5]; 10 mg oral once daily) [%]	form and route of excretion ([5]; human, in vivo)	excreted via the kidney ([5]; therapeutic oral dose levels)	main route of excretion ([5]; therapeutic oral dose levels)	change in overall weight compared with vehicle [6, 9]	change in overall weight compared with vehicle [6, 10] [%]
CC#CCn1c(N2CCC[C@@H](N)C2)nc2c1c(=O)n(Cc1nc(C)c3ccccc3n1)c(=O)n2C [BI 1356]	no effect	no effect	160	144	placebo-like safety and tolerability	−10	−17	≤ 1.4	0.139	0.453	0.919	3.34	3.06	6.27	3.22	primarily excreted unchanged via the bile	< 7 % of the administered oral dose	mainly excreted via the liver	+0.7%	−0.2
OCC(CO)N[C@H]1C[C@](O)(CO)[C@@H](O)[C@H](O)[C@H]1O [voglibose, reference compound]	–	–	–	–	–	−33	−18	–	–	–	–	–	–	–	–	–	–	–	−3.0%	−1.7
GLP-1: native GLP-1(7-36), short acting GLP-1 receptor agonist (HAEGTFTSDVSSYLEGQAAKEFIAWLVKGR; ends and bridges not checked; UniProt P01275 98-127, looked up, fragment) [reference compound]	modest and short-lived suppression	no effect	–	–	–	–	–	–	–	–	–	–	–	–	–	–	–	–	–	–
